Source: ChEMBL document CHEMBL5131471, “Design, synthesis and mechanism studies of novel dual PARP1/BRD4 inhibitors against pancreatic cancer” (Eur J Med Chem, 2022)
Activity calls are given as the source filed them. The rule behind the calls is not given here.

How the values were obtained:
[1] = Toxicity in nude mouse xenografted with human SW1990 cells assessed as heart damage at 45 mg/kg, ip administered for 28 days by H and E staining based fluorescence microscopic analysis; assay type: organism-based; conditions: in vivo, 672 h, time 28 day
Mus musculus [2] = assay: Upregulation of CDK1 expression in nude mouse xenografted with human SW1990 cells at 45 mg/kg, ip measured after 4 days by Q-PCR analysis; assay type: functional, organism-based; conditions: time 4.0 day
Mus musculus [3] = assay: Upregulation of E2F2 expression in nude mouse xenografted with human SW1990 cells at 45 mg/kg, ip measured after 4 days by Western blot analysis; assay type: functional, organism-based; conditions: time 4.0 day
Mus musculus [4] = assay: Upregulation of CDK1 expression in nude mouse xenografted with human SW1990 cells at 45 mg/kg, ip measured after 4 days by Western blot analysis; assay type: functional, organism-based; conditions: time 4.0 day
SW1990 [5] = assay: Effect on E2F2 gene expression in human SW1990 cells at 6 uM by Q-PCR analysis; assay type: functional, cell-based
SW1990 [6] = assay: Effect on HEXIM1 gene expression in human SW1990 cells at 6 uM by Q-PCR analysis; assay type: functional, cell-based
SW1990 [7] = assay: Effect on Rad51 gene expression in human SW1990 cells at 6 uM by Q-PCR analysis; assay type: functional, cell-based
SW1990 [8] = assay: Upregulation of CDK1 expression in human SW1990 cells at 6 uM measured after 4 days by Western blot analysis; assay type: functional, cell-based; conditions: time 4.0 day
SW1990 [9] = assay: Effect on CDC25B gene expression in human SW1990 cells at 4 uM by Q-PCR analysis; assay type: functional, cell-based
[10] = Toxicity in nude mouse xenografted with human SW1990 cells assessed as lung damage at 15 mg/kg, ip administered for 28 days by H and E staining based fluorescence microscopic analysis; assay type: organism-based; conditions: in vivo, 672 h, time 28 day
[11] = Toxicity in nude mouse xenografted with human SW1990 cells assessed as kidney damage at 15 mg/kg, ip administered for 28 days in presence of 45 mg/kg Olaparib by H and E staining based fluorescence microscopic analysis; assay type: organism-based; conditions: in vivo, 672 h, time 28 day
SW1990 [12] = assay: Induction of apoptosis in human SW1990 cells assessed as late apoptotic cells at 4 uM measured after 4 days by Annexin V-FITC and propidium iodide staining based flow cytometry (reference value: 7.23%); assay type: functional; conditions: time 4 day
SW1990 [13] = assay: Induction of cell cycle arrest in human SW1990 cells assessed as accumulation of cells at G2/M phase at 4 uM incubated for 4 days by propidium iodide staining based flow cytometry (reference value: 5.89%); assay type: functional; conditions: time 4 day
SW1990 [14] = assay: Induction of cell cycle arrest in human SW1990 cells assessed as accumulation of cells at S phase at 1 uM incubated for 4 days in presence of 3 uM Olaparib by propidium iodide staining based flow cytometry (reference value: 29.32%); assay type: functional; conditions: time 4 day
SW1990 [15] = assay: Induction of DNA damage in human SW1990 cells assessed as increase in gammaH2AX expression at 4 uM incubated for 4 days by DAPI staining based laser confocal microscopic analysis; assay type: functional, cell-based; conditions: time 4.0 day
SW1990 [16] = assay: Effect on CDK6 gene expression in human SW1990 cells at 4 uM by Q-PCR analysis; assay type: functional, cell-based
SW1990 [17] = assay: Effect on BRCA2 gene expression in human SW1990 cells at 4 uM by Q-PCR analysis; assay type: functional, cell-based
SW1990 [18] = assay: Effect on MDC1 gene expression in human SW1990 cells at 4 uM by Q-PCR analysis; assay type: functional, cell-based
SW1990 [19] = assay: Effect on CCND1 gene expression in human SW1990 cells at 1 uM in presence of Olaparib by Q-PCR analysis; assay type: functional, cell-based
SW1990 [20] = assay: Effect on FOXM1 gene expression in human SW1990 cells at 1 uM in presence of Olaparib by Q-PCR analysis; assay type: functional, cell-based
SW1990 [21] = assay: Downregulation of Ki67 expression in human SW1990 cells at 15 mg/kg, ip measured after 28 days by immuno histochemical staining based fluorescence microscopic analysis; assay type: functional, organism-based; conditions: time 28.0 day
MDA-MB-231 = assay: Antiproliferative activity against BRCA-proficient human MDA-MB-231 cells assessed as inhibition of cell growth measured after 7 days by MTT assay; assay type: functional, cell-based; conditions: MDA-MB-231, 168 h
[22] = target: Bromodomain-containing protein 4 (Homo sapiens, UniProt O60885); assay: Inhibition of BRD4-BD1/2 (unknown origin)
SW1990 [23] = assay: Antiproliferative activity against human SW1990 cells assessed as inhibition of cell growth measured after 4 days by MTT assay; assay type: functional, cell-based; conditions: SW1990, 96 h
[24] = Toxicity in nude mouse xenografted with human SW1990 cells assessed as spleen damage at 30 mg/kg, ip administered for 28 days by H and E staining based fluorescence microscopic analysis; assay type: organism-based; conditions: in vivo, 672 h, time 28 day
[25] = Toxicity in nude mouse xenografted with human SW1990 cells assessed as lung damage at 30 mg/kg, ip administered for 28 days by H and E staining based fluorescence microscopic analysis; assay type: organism-based; conditions: in vivo, 672 h, time 28 day
Mus musculus [26] = assay: Inhibition of PARP1 expression in nude mouse xenografted with human […] cells at 30 mg/kg, ip administered for 28 days by Q-PCR analysis; assay type: functional, organism-based; conditions: time 28.0 day
SW1990 [27] = assay: Downregulation of PARP1 expression in human SW1990 cells at 2 uM measured after 4 days by Western blot analysis; assay type: functional, cell-based; conditions: time 4.0 day
SW1990 [28] = assay: Induction of apoptosis in human SW1990 cells assessed as early apoptotic cells at 1 uM measured after 4 days by Annexin V-FITC and propidium iodide staining based flow cytometry (reference value: 1.62%); assay type: functional; conditions: time 4 day
SW1990 [29] = assay: Induction of apoptosis in human SW1990 cells assessed as necrotic cells at 2 uM measured after 4 days by Annexin V-FITC and propidium iodide staining based flow cytometry (reference value: 2.45%); assay type: functional; conditions: time 4 day
Mus musculus [30] = assay: Inhibition of CDK6 expression in nude mouse xenografted with human SW1990 cells at 30 mg/kg, ip measured after 4 days by Q-PCR analysis; assay type: functional, organism-based; conditions: time 4.0 day
SW1990 [31] = assay: Inhibition of homologous recombinant repair in human SW1990 cells assessed as reversal of Olaparib-induced FOXM1 expression at 1 to 2 uM after 4 days by Western blot analysis; assay type: functional, cell-based; conditions: dose 1-2 µM, time 4.0 day
Mus musculus [32] = assay: Inhibition of homologous recombinant repair in nude mouse xenografted with human SW1990 cells assessed as reversal of olaparib-induced ALDH1A1 expression at 30 mg/kg, ip after 4 days by Western blot analysis; assay type: functional, organism-based; conditions: time 4.0 day
Mus musculus [33] = assay: Inhibition of homologous recombinant repair in nude mouse xenografted with human SW1990 cells assessed as reversal of olaparib-induced TOPBP1 expression at 30 mg/kg, ip measured after 4 days by Western blot analysis; assay type: functional, organism-based; conditions: time 4.0 day
SW1990 [34] = assay: Effect on FOXM1 gene expression in human SW1990 cells at 1 to 2 uM by Q-PCR analysis; assay type: functional, cell-based; conditions: dose 1-2 µM
SW1990 [35] = assay: Inhibition of CDC25B protein expression in human SW1990 cells at 1 to 2 uM measured after 4 days by Western blot analysis; assay type: functional, cell-based; conditions: dose 1-2 µM, time 4.0 day
SW1990 [36] = assay: Inhibition of CCND1 protein expression in human SW1990 cells at 1 to 2 uM measured after 4 days by Western blot analysis; assay type: functional, cell-based; conditions: dose 1-2 µM, time 4.0 day
Mus musculus [37] = assay: Inhibition of homologous recombinant repair in nude mouse xenografted with human SW1990 cells assessed as reversal of olaparib-induced FOXO1 expression at 30 mg/kg, ip measured after 4 days by Western blot analysis; assay type: functional, organism-based; conditions: time 4.0 day

O=C(c1cc(Cc2n[nH]c(=O)c3ccccc23)ccc1F)N1CCN(C(=O)C2CC2)CC1 [OLAPARIB]
Activity [1]: Non-Toxic | Activity (Mus musculus [2]): Active | Activity (Mus musculus [3]): Active | Activity (Mus musculus [4]): Active | Activity (SW1990 [5]): Active | Activity (SW1990 [6]): Active | Activity (SW1990 [7]): Active | Activity (SW1990 [8]): Active

Cc1sc2c(c1C)C(c1ccc(Cl)cc1)=N[C@@H](CC(=O)OC(C)(C)C)c1nnc(C)n1-2
Activity (SW1990 [9]): Active | Activity [10]: Non-Toxic | Activity [11]: Non-Toxic | Activity (SW1990 [12]): 24.9% | Activity (SW1990 [13]): 5.51% | Activity (SW1990 [14]): 19.33% | Activity (SW1990 [15]): Active | Activity (SW1990 [16]): Active | Activity (SW1990 [17]): Active | Activity (SW1990 [18]): Active | Activity (SW1990 [19]): Active | Activity (SW1990 [20]): Active | Activity (SW1990 [21]): Active

Cc1noc(C)c1-c1ccc2c(c1)C(c1ccccc1)N(Cc1nc3c(C(N)=O)cccc3[nH]1)C(=O)N2C (stereo not drawn)
IC50 (MDA-MB-231): 0.14 µM | IC50 [22]: 0.202 µM | IC50 (SW1990 [23]): 1.34 µM | Activity [24]: Non-Toxic | Activity [25]: Non-Toxic | inhibition (Mus musculus [26]): Active | Activity (SW1990 [27]): Active | Activity (SW1990 [28]): 3.02% | Activity (SW1990 [29]): 3.52% | inhibition (Mus musculus [30]): Active | inhibition (SW1990 [31]): Active | inhibition (Mus musculus [32]): Active | inhibition (Mus musculus [33]): Active | Activity (SW1990 [34]): Active | inhibition (SW1990 [35]): Active | inhibition (SW1990 [36]): Active | inhibition (Mus musculus [37]): Active
